{"source": "paper PMC5564600", "about": "(Oncotarget, 2017)", "key": {"panel of 442 kinases [1]": {"biological_target": "T1, panel of 442 kinases (Homo sapiens, UniProt Q9UL54)", "T1 construct": "purchased Ambit Biosciences (scanMAXX KINOMEscan)", "T1 sequence (Q9UL54 1-1235)": "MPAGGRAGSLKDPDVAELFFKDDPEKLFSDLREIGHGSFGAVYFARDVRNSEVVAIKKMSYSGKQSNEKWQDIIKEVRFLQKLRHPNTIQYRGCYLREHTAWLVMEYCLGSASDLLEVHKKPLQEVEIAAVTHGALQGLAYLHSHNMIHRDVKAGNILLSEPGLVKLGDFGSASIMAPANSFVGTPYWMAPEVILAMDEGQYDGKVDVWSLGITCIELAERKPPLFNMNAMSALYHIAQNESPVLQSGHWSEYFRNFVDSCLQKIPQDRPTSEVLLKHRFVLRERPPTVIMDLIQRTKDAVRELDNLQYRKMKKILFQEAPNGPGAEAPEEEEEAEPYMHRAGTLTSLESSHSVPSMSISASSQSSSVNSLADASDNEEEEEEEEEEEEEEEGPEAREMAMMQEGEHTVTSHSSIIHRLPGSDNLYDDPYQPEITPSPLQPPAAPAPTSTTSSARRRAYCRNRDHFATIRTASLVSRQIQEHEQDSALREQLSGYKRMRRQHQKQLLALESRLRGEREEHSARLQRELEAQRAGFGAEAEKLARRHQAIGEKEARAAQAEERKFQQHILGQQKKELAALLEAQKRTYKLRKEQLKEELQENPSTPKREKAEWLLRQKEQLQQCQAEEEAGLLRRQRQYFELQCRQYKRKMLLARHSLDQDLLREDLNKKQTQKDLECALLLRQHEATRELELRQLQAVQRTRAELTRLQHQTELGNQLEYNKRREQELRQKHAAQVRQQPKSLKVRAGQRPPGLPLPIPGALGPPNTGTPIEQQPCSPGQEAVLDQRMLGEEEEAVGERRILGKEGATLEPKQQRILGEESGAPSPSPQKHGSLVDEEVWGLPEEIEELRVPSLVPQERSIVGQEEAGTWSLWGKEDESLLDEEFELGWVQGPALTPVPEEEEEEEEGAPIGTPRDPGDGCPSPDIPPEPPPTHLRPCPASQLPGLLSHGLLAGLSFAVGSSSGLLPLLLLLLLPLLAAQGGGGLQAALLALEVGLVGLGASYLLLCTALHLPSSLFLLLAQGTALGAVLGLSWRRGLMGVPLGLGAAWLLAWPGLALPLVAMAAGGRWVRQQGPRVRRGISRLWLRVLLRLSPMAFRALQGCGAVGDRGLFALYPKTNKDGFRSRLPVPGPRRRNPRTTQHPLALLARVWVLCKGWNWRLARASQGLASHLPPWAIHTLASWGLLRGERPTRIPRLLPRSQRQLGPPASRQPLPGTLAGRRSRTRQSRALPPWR", "test": "biochemical", "format": "binding", "details": "kinase TAOK2; for remaining activity at 1 µM: read-out: TAOK2 (% of control at 1 µM)"}, "panel of 442 kinases [2]": {"biological_target": "T2, panel of 442 kinases (Homo sapiens, UniProt Q8TD19)", "T2 construct": "purchased Ambit Biosciences (scanMAXX KINOMEscan)", "T2 sequence (Q8TD19 1-979)": "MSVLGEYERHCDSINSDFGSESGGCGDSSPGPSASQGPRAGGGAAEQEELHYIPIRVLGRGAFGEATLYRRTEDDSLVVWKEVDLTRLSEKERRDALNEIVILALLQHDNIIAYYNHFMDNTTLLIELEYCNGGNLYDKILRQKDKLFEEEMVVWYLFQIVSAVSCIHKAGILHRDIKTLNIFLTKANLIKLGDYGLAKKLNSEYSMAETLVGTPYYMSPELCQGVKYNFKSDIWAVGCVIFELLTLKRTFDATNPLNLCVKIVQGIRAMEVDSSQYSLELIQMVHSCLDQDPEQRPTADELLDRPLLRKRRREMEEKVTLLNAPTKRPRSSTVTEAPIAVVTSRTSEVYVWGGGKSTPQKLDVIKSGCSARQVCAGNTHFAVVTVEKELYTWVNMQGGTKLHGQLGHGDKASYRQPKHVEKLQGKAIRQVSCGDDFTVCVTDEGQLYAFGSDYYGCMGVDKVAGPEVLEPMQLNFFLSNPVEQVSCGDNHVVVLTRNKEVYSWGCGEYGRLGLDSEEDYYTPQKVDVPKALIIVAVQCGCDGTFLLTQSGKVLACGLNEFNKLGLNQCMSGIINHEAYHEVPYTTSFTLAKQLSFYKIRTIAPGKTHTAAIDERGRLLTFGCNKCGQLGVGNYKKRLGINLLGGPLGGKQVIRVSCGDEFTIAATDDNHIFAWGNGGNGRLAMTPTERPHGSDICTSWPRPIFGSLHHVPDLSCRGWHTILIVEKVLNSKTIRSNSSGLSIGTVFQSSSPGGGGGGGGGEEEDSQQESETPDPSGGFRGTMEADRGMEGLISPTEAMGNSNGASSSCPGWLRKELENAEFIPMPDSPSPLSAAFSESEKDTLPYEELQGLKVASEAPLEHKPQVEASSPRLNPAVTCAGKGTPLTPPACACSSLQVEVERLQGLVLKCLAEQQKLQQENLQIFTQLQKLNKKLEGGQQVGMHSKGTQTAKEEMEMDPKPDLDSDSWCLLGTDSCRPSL", "test": "biochemical", "format": "binding", "details": "kinase NEK9; for remaining activity at 1 µM: read-out: % of control at 1 µM"}}, "data": [{"smiles": "Nc1cc(C(F)(F)F)c(-c2cc(N3CCOCC3)nc(N3CCOCC3)n2)cn1", "note": "[Buparlisib]", "values": [{"measurement": "remaining activity at 1 µM", "setting": "panel of 442 kinases [1]", "result": 87, "unit": "%"}, {"measurement": "remaining activity at 10 µM", "setting": "panel of 442 kinases [1]; 10 µM, read-out: TAOK2 (% of control at 10 µM)", "result": 84, "unit": "%"}, {"measurement": "remaining activity at 1 µM", "setting": "panel of 442 kinases [2]", "result": 94, "unit": "%"}, {"measurement": "remaining activity at 10 µM", "setting": "panel of 442 kinases [2]; 10 µM, read-out: % of control at 10 µM", "result": 100, "unit": "%"}]}, {"smiles": "Cn1c(=O)n(-c2ccc(C(C)(C)C#N)cc2)c2c3cc(-c4cnc5ccccc5c4)ccc3ncc21", "note": "[Dactolisib, 2-methyl-2-[4-(3-methyl-2-oxo-8-quinolin-3-yl-2,3-dihydroimidazo[4,5-c]quinolin-1-yl)-phenyl] propionitrile]", "values": [{"measurement": "remaining activity at 1 µM", "setting": "panel of 442 kinases [1]", "result": 98, "unit": "%"}, {"measurement": "remaining activity at 1 µM", "setting": "panel of 442 kinases [2]", "result": 96, "unit": "%"}]}, {"smiles": "COc1ncc(-c2ccc3nccc(-c4ccnnc4)c3c2)cc1NS(=O)(=O)c1ccc(F)cc1F", "note": "[Omipalisib]", "values": [{"measurement": "remaining activity at 1 µM", "setting": "panel of 442 kinases [1]", "result": 100, "unit": "%"}, {"measurement": "remaining activity at 1 µM", "setting": "panel of 442 kinases [2]", "result": 100, "unit": "%"}]}, {"smiles": "FC(F)c1nc2ccccc2n1-c1nc(N2CCOCC2)nc(N2CCOCC2)n1", "note": "[ZSTK474, 2-(difluoromethyl)-1-[4,6-di(4-morpholinyl)-1,3,5-triazin-2-yl]-1H-benzimidazole]", "values": [{"measurement": "remaining activity at 1 µM", "setting": "panel of 442 kinases [1]", "result": 81, "unit": "%"}, {"measurement": "remaining activity at 1 µM", "setting": "panel of 442 kinases [2]", "result": 84, "unit": "%"}]}]}
